According to patent US11053204B2, “Pyrimidinyloxy benzene derivatives as herbicides” (FMC Corporation, priority 2015, dated 2021):

Key:
Assay type in all cases: in vivo
[1] = tested on: Italian ryegrass (Lolium multiflorum); experiment: Test A preemergence, visual injury rating; conditions: 0 to 100 scale (0 no effect, 100 complete control)
Procedure, shortened: (§1)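 Greenhouse pot test, loam/sand soil. Formulation: non-phytotoxic solvent mix plus surfactant. Pre: directed spray onto soil after sowing. Post: plants at 1–2 leaf, 2–10 cm. Rated visually vs untreated controls at ~10 d, 0 (no effect) to 100 (complete control).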

[2] = tested on: barnyardgrass (Echinochloa crus-galli); experiment: Test A preemergence, visual injury rating; conditions: 0 to 100 scale (0 no effect, 100 complete control)
Procedure, shortened: as §1

[3] = tested on: giant foxtail (Setaria faberii); experiment: Test A preemergence, visual injury rating; conditions: 0 to 100 scale (0 no effect, 100 complete control)
Procedure, shortened: as §1

kochia (Kochia scoparia) [4] = experiment: Test A preemergence, visual injury rating; conditions: 0 to 100 scale (0 no effect, 100 complete control)
Procedure, shortened: as §1

[5] = tested on: pigweed (Amaranthus retroflexus); experiment: Test A preemergence, visual injury rating; conditions: 0 to 100 scale (0 no effect, 100 complete control)
Procedure, shortened: as §1

[6] = tested on: ragweed (common ragweed, Ambrosia elatior); experiment: Test A preemergence, visual injury rating; conditions: 0 to 100 scale (0 no effect, 100 complete control)
Procedure, shortened: as §1

[7] = tested on: Italian ryegrass (Lolium multiflorum); experiment: Test A postemergence, visual injury rating; conditions: 0 is no effect, 100 is complete control
Source text: (§2) Seeds of plant species selected from barnyardgrass (Echinochloa crus-galli), kochia (Kochia scoparia), ragweed (common ragweed, Ambrosia elatior), Italian ryegrass (Lolium multiflorum), large (Lg) crabgrass (Digitaria sanguinalis), giant foxtail (Setaria faberii), morningglory (Ipomoea spp.), pigweed (Amaranthus retroflexus), velvetleaf (Abutilon theophrasti), wheat (Triticum aestivum), and corn (Zea mays) were planted into a blend of loam soil and sand and treated preemergence with a directed soil spray using test chemicals formulated in a non-phytotoxic solvent mixture which included a surfactant.
(§3) At the same time, plants selected from these crop and weed species and also blackgrass (Alopecurus myosuroides), and galium (catchweed bedstraw, Galium aparine) were planted in pots containing the same blend of loam soil and sand and treated with postemergence applications of test chemicals formulated in the same manner. Plants ranged in height from 2 to 10 cm and were in the one- to two-leaf stage for the postemergence treatment. Treated plants and untreated controls were maintained in a greenhouse for approximately 10 days, after which time all treated plants were compared to untreated controls and visually evaluated for injury. Plant response ratings, summarized in Table A, are based on a 0 to 100 scale where 0 is no effect and 100 is complete control. A dash (-) response means no test result.

[8] = tested on: barnyardgrass (Echinochloa crus-galli); experiment: Test A postemergence, visual injury rating; conditions: 0 is no effect, 100 is complete control
Source text: as §2, §3

[9] = tested on: blackgrass (Alopecurus myosuroides); experiment: Test A postemergence, visual injury rating; conditions: 0 is no effect, 100 is complete control
Source text: as §2, §3

corn (Zea mays) = experiment: Test A postemergence, visual injury rating; conditions: 0 is no effect, 100 is complete control
Source text: as §2, §3

[10] = tested on: galium (catchweed bedstraw, Galium aparine); experiment: Test A postemergence, visual injury rating; conditions: 0 is no effect, 100 is complete control
Source text: as §2, §3

[11] = tested on: giant foxtail (Setaria faberii); experiment: Test A postemergence, visual injury rating; conditions: 0 is no effect, 100 is complete control
Source text: as §2, §3

kochia (Kochia scoparia) [12] = experiment: Test A postemergence, visual injury rating; conditions: 0 is no effect, 100 is complete control
Source text: as §2, §3

[13] = tested on: pigweed (Amaranthus retroflexus); experiment: Test A postemergence, visual injury rating; conditions: 0 is no effect, 100 is complete control
Source text: as §2, §3

[14] = tested on: ragweed (common ragweed, Ambrosia elatior); experiment: Test A postemergence, visual injury rating; conditions: 0 is no effect, 100 is complete control
Source text: as §2, §3

[15] = tested on: wheat (Triticum aestivum); experiment: Test A postemergence, visual injury rating; conditions: 0 is no effect, 100 is complete control
Source text: as §2, §3

[16] = tested on: barnyardgrass (Echinochloa crus-galli); experiment: Test B flooded paddy test, plant response rating; conditions: 250 g ai/ha; Flood; scale of 0 to 100 where 0 is no effect and 100 is complete control; 13 to 15 days
Source text: (§4) At time of treatment, test pots were flooded to 3 cm above the soil surface, treated by application of test compounds directly to the paddy water, and then maintained at that water depth for the duration of the test. Treated plants and controls were maintained in a greenhouse for 13 to 15 days, after which time all species were compared to controls and visually evaluated. […] A dash (-) response means no test result.

[17] = tested on: ducksalad (Heteranthera limosa); experiment: Test B flooded paddy test, plant response rating; conditions: 250 g ai/ha; Flood; scale of 0 to 100 where 0 is no effect and 100 is complete control; 13 to 15 days
Source text: as §4

rice (Oryza sativa) = experiment: Test B flooded paddy test, plant response rating; conditions: 250 g ai/ha; Flood; scale of 0 to 100 where 0 is no effect and 100 is complete control; 13 to 15 days
Source text: as §4

[18] = tested on: sedge, umbrella (small-flower umbrella sedge, Cyperus difformis); experiment: Test B flooded paddy test, plant response rating; conditions: 250 g ai/ha; Flood; scale of 0 to 100 where 0 is no effect and 100 is complete control; 13 to 15 days
Source text: as §4

Structure (SMILES) | Ryegrass, Italian plant response rating ([1]; 125 g ai/ha) | Ryegrass, Italian plant response rating ([1]; 500 g ai/ha) | Barnyardgrass plant response rating ([2]; 125 g ai/ha) | Barnyardgrass plant response rating ([2]; 500 g ai/ha) | Foxtail, Giant plant response rating ([3]; 125 g ai/ha) | Foxtail, Giant plant response rating ([3]; 500 g ai/ha) | Kochia plant response rating (kochia (Kochia scoparia) [4]; 125 g ai/ha) | Kochia plant response rating (kochia (Kochia scoparia) [4]; 500 g ai/ha) | Pigweed plant response rating ([5]; 125 g ai/ha) | Pigweed plant response rating ([5]; 500 g ai/ha) | Ragweed plant response rating ([6]; 125 g ai/ha) | Ragweed plant response rating ([6]; 500 g ai/ha) | Ryegrass, Italian plant response rating (0 to 100 scale) ([7]; 125 g ai/ha) | Ryegrass, Italian plant response rating (0 to 100 scale) ([7]; 500 g ai/ha) | Barnyardgrass plant response rating (0 to 100 scale) ([8]; 125 g ai/ha) | Barnyardgrass plant response rating (0 to 100 scale) ([8]; 500 g ai/ha) | Blackgrass plant response rating (0 to 100 scale) ([9]; 125 g ai/ha) | Blackgrass plant response rating (0 to 100 scale) ([9]; 500 g ai/ha) | Corn plant response rating (0 to 100 scale) (corn (Zea mays); 125 g ai/ha) | Corn plant response rating (0 to 100 scale) (corn (Zea mays); 500 g ai/ha) | further results
O=C(OCC1CCCC1)c1c(Br)cccc1Oc1ncc(Cl)cn1 [Compound 6] | 0 | 70 | 10 | 60 | 60 | 100 | 0 | 0 | 10 | 70 | 0 | 0 | 0 | 40 | 10 | 40 | 10 | 30 | 0 | 10 | Galium plant response rating (0 to 100 scale) ([10]; 125 g ai/ha): 60; Galium plant response rating (0 to 100 scale) ([10]; 500 g ai/ha): 90; Foxtail, Giant plant response rating (0 to 100 scale) ([11]; 125 g ai/ha): 10; Foxtail, Giant plant response rating (0 to 100 scale) ([11]; 500 g ai/ha): 50; Kochia plant response rating (0 to 100 scale) (kochia (Kochia scoparia) [12]; 125 g ai/ha): 40; Kochia plant response rating (0 to 100 scale) (kochia (Kochia scoparia) [12]; 500 g ai/ha): 90; Pigweed plant response rating (0 to 100 scale) ([13]; 125 g ai/ha): 60; Pigweed plant response rating (0 to 100 scale) ([13]; 500 g ai/ha): 90; Ragweed plant response rating (0 to 100 scale) ([14]; 125 g ai/ha): 10; Ragweed plant response rating (0 to 100 scale) ([14]; 500 g ai/ha): 30; Wheat plant response rating (0 to 100 scale) ([15]; 125 g ai/ha): 0; Wheat plant response rating (0 to 100 scale) ([15]; 500 g ai/ha): 10; Plant response rating, Barnyardgrass [16]: 0; Plant response rating, Ducksalad [17]: 0; Plant response rating, Rice (rice (Oryza sativa)): 0; Plant response rating, Sedge, Umbrella [18]: 0
O=C(OCC1CCC1)c1c(Br)cccc1Oc1ncc(Cl)cn1 [Compound 8] | 0 | 30 | 30 | 100 | 100 | 100 | 0 | 0 | 10 | 60 | 0 | 0 | 0 | 30 | 10 | 40 | 0 | 20 | 0 | 20 | Galium plant response rating (0 to 100 scale) ([10]; 125 g ai/ha): 60; Galium plant response rating (0 to 100 scale) ([10]; 500 g ai/ha): 90; Foxtail, Giant plant response rating (0 to 100 scale) ([11]; 125 g ai/ha): 30; Foxtail, Giant plant response rating (0 to 100 scale) ([11]; 500 g ai/ha): 60; Kochia plant response rating (0 to 100 scale) (kochia (Kochia scoparia) [12]; 125 g ai/ha): 40; Kochia plant response rating (0 to 100 scale) (kochia (Kochia scoparia) [12]; 500 g ai/ha): 80; Pigweed plant response rating (0 to 100 scale) ([13]; 125 g ai/ha): 50; Pigweed plant response rating (0 to 100 scale) ([13]; 500 g ai/ha): 90; Ragweed plant response rating (0 to 100 scale) ([14]; 125 g ai/ha): 10; Ragweed plant response rating (0 to 100 scale) ([14]; 500 g ai/ha): 40; Wheat plant response rating (0 to 100 scale) ([15]; 125 g ai/ha): 0; Wheat plant response rating (0 to 100 scale) ([15]; 500 g ai/ha): 0; Plant response rating, Barnyardgrass [16]: 0; Plant response rating, Ducksalad [17]: 0; Plant response rating, Rice (rice (Oryza sativa)): 0; Plant response rating, Sedge, Umbrella [18]: 70
